Results published in patent publication US4537896A, “Thrombin inhibiting arylsulfonyl guanidinophenylalanine amides” (KabiVitrum AB, priority 1982, dated 1985).
Structures can show the parent of a compound that is named as a salt.

How the values were obtained:
human factor Xa = target: T1, human factor Xa (Homo sapiens, UniProt P00742); test: Determination of Ki, inhibition of reaction of factor Xa with substrate S-2222; format: biochemical; details: Table 3; read-out: Ki FXa (converted)
T1 construct: human factor Xa; purchased KabiVitrum AB, Stockholm
Protocol: (§1) The inhibition of reaction of the enzymes (human thrombin; Sigma Chemical Co., St. Louis, U.S.A. and human factor Xa; KabiVitrum AB, Stockholm) with the substrates (S-2238 resp. S-2222, Kabi Diagnostica, Stockholm) was determined at three different substrate concentrations from 0.3 to 2 km. Six different inhibitor concentrations, which give inhibition from 40% to 90%, were incubated with the enzyme for 30 seconds at 37° C. The buffer composition, ionic strength, pH and enzyme concentration were the same as those recommended in the booklets from Kabi Diagnostica. The initial reaction velocity (ΔA/min) was measured on a recorder at 405 nm. Ki values were than graphically determined from Dixon and Lineweaver-Burk diagrams.

human thrombin = target: T2, human thrombin (Homo sapiens, UniProt P00734); test: Determination of Ki, inhibition of reaction of thrombin with substrate S-2238; format: biochemical
T2 construct: human thrombin; purchased Sigma Chemical Co., St. Louis, U.S.A
Protocol: as §1
Ki of thrombin is given in mol/l.

thrombin [1] = test: Thrombin time, plasma (prolongation of coagulation time initiated by thrombin); format: biochemical, dog; details: for Thrombin time, plasma: concentration of the inhibitor which doubles the thrombin time of dog plasma: Table 1, 37° C., 30 seconds incubation; for "Thrombin time" Concentration required to prolong the coagulation time by a factor of 2: Table 3
Protocol: A volume of 200 μl citrate-plasma was heated for 1 minute at 37° C. The coagulation was started by adding 10 μl fresh thrombin solution (about 5 NIH U/ml) and the coagulation time was registrated by a fibrinometer. At the inhibition experiments the plasma was incubated for 30 seconds with 10 μl inhibitor solution at different concentrations before the thrombin solutions was added.
"Thrombin time" designates the concentration (mol/l) of the inhibitor, which doubles the thrombin time of dog plasma. The Arg derivates have been synthesized according to ref. 1 and 2.Tos-Gph-OMe has been synthesized according to ref. 6.

trypsin = details: literature; cited from earlier work
thrombin [2] = details: literature; cited from earlier work
thrombin [3] = details: literature; cited from earlier work; remark: listed apart in the source

T1 sequence (P00742 235-488 limits assumed): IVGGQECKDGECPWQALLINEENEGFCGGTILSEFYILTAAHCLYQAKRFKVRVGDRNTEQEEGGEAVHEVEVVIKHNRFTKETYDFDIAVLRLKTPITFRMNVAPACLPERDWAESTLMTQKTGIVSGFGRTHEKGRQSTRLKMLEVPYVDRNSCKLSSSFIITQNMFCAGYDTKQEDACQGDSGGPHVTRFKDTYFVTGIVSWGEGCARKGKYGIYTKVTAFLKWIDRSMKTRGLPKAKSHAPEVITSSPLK
T1 sequence (P00742 41-179 partner limits assumed): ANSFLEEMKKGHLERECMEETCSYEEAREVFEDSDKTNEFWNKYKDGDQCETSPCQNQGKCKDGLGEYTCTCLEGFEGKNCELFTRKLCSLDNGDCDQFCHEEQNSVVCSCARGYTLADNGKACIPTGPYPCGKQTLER

Compound	Ki (human factor Xa) [µM]	"Thrombin time" Concentration required to prolong the coagulation time by a factor of 2 (thrombin [1])	Ki (human thrombin; Table 3) [µM]	further results
CC1CCN(C(=O)[C@H](Cc2ccc(NC(=N)N)cc2)NS(=O)(=O)c2cccc3ccccc23)CC1 [iii, α-Naphthalenesulfonyl--Gph--4-methylpiperidide]	370			Ki (human thrombin; Table 2, Gph-derivatives): 0.35 µM
CN(C)c1cccc2c(S(=O)(=O)N[C@@H](CCCNC(=N)N)C(=O)N3CCCCC3)cccc12 [Dansyl--Arg--piperidide, reference compound]				Thrombin time, plasma: concentration of the inhibitor which doubles the thrombin time of dog plasma (thrombin [1]): 2.10^-6 mol/l; Ki (human thrombin; Table 1): 0.09 µM
CN1CCN(C(=O)[C@H](Cc2ccc(NC(=N)N)cc2)NS(=O)(=O)c2cccc3c(N(C)C)cccc23)CC1 [viii]	300	1.6.10^-7 mol/l	0.7	
N=C(N)Nc1ccc(C[C@H](NS(=O)(=O)c2ccc3ccccc3c2)C(=O)N2CCOCC2)cc1 [iv, β-Naphthalenesulfonyl--Gph--morpholide]	50	8.10^-7 mol/l		Ki (human thrombin; Table 2, Gph-derivatives): 0.18 µM
CCOC(=O)[C@H](Cc1ccc(NC(=N)N)cc1)NC(=O)c1ccccc1 [Bz-Gph-OEt]				substrate for trypsin (trypsin): comparable with Tos-Gph-OMe and Tos-Arg-OMe (TAME)
CCCC1CCN(C(=O)[C@H](Cc2ccc(NC(=N)N)cc2)NS(=O)(=O)c2cccc3c(N(C)C)cccc23)CC1 [vii]	200	1.5.10^-5 mol/l	0.23	
CN(C)c1cccc2c(S(=O)(=O)N[C@@H](Cc3ccc(NC(=N)N)cc3)C(=O)N3CCCCCC3)cccc12 [vi]	300		0.08	
CCCCN(C)C(=O)[C@H](Cc1ccc(NC(=N)N)cc1)NS(=O)(=O)c1cccc2c(N(C)C)cccc12 [ix]	130	2.5.10^-7 mol/l	0.35	
CC1CCN(C(=O)[C@H](Cc2ccc(NC(=N)N)cc2)NS(=O)(=O)c2ccc3ccccc3c2)CC1 [ii, N^α -(Naphthalene-2-sulfonyl)-p-guanidino-Phe-4-methyl-piperidide hydrochloride]	20	1.10^-6 mol/l		Ki (human thrombin; Table 2, Gph-derivatives): 0.31 µM
CN(C)c1cccc2c(S(=O)(=O)N[C@@H](Cc3ccc(NC(=N)N)cc3)C(=O)N3CCCCC3)cccc12 [i, N^α -Dansyl-p-guanidino-Phe-piperidide hydrochloride]	250	6.10^-7 mol/l	0.09	Thrombin time, plasma: concentration of the inhibitor which doubles the thrombin time of dog plasma (thrombin [1]): 6.10^-7 mol/l
COC(=O)[C@H](Cc1ccc(NC(=N)N)cc1)NS(=O)(=O)c1ccc(C)cc1 [Tos--Gph--OMe]				inhibition of thrombin (thrombin [2]): ability to inhibit the amidase- and esterase activity of thrombin; substrate for / split by thrombin (thrombin [3]): bad substrate for thrombin; substrate for trypsin (trypsin): good substrate for trypsin; Ki (human thrombin; Table 1): 7.5 µM
Cc1ccc(S(=O)(=O)N[C@@H](CCCNC(=N)N)C(=O)N2CCCCC2)cc1 [Tos--Arg--piperidide, reference compound]				Ki (human thrombin; Table 1): 5 µM
Cc1ccc(S(=O)(=O)N[C@@H](Cc2ccc(NC(=N)N)cc2)C(=O)N2CCCCC2)cc1 [v, Tos--Gph--piperidide]	250	1.10^-6 mol/l		Thrombin time, plasma: concentration of the inhibitor which doubles the thrombin time of dog plasma (thrombin [1]): 1.10^-6 mol/l; Ki (human thrombin; Table 2, Gph-derivatives): 0.8 µM
CCOC(=O)[C@H](CCCNC(=N)N)NC(=O)c1ccccc1 [BAEE, Bz-Arg-OEt]				substrate for / split by thrombin (thrombin [3]): can be split by thrombin
